# According to patent US20090137549A1, “Novel compounds useful for the treatment of degenerative & inflamatory diseases” (priority 2006, published 2009):
# Target: PDE1A (Homo sapiens, UniProt P54750)
# Experiment: PDE1A dose response, Cyclic Nucleotide Phosphodiesterase Assay Kit from Biomol (colorimetric)
# Type: biochemical
# Details: purified PDE1A enzyme, 100 μM cAMP
# Excerpt: For the dose response and further screening, we used the Cyclic Nucleotide
# Phosphodiesterase Assay Kit from Biomol, a colorimetric, non-radioactive assay. The basis for the assay is the cleavage of cAMP by PDE1A. The 5′AMP is further cleaved into the nucleoside and phosphate by the enzyme 5′-nucleotidase (catnr KI-307). The phosphate released due to enzymatic cleavage is quantified using BIOMOL GREEN™ reagent (catnr AK-111) in a modified Malachite Green assay^1,2. A PDE1A inhibitor will result in a decrease of the signal.
# For the enzymatic reaction a mix of 25 μL with purified PDE1A enzyme, 100 μM cAMP, 5′Nucleotidase and the compound is made in a clear 384-plate. The reaction buffer is Tris 20 mM pH 7.4, 4 μg/mL calmodulin, 3 mM MgCl2, 1.5 mM CaCl2, 0.2 mg/mL BSA and 0.001% Brij-35. After an incubation of 45 minutes at 37° C., the reaction is stopped by the addition of 50 μL BIOMOL GREEN™ reagent. After 30 minutes incubation at room temperature, the readout is performed on the Envision (absorption at 615 nm).
# All compounds are tested in duplicate starting from […] followed by a 1/3 serial dilution, 8 points (20 μM-6.67 μM-2.22 μM-740 nM-247 nM-82 nM-27 nM-9 nM) in a final concentration of 1% DMSO. As the positive dose response control compound Vardenafil is used. For the calculation of z′ and PIN values 10 μM Vardenafil is used as positive control (100% inhibition) and 1% DMSO as negative control (0% inhibition).
# The following compounds have been or can be prepared according to the synthetic methods described above. For the purpose of Table 7 below, PDE1A activity of each compound, which can be determined using the assay methods described herein, is expressed as follows: […]
row,SMILES,IC50 [nM]
1,"Cc1nn(C(C)(C)C)c2nc(C3CN(C(=O)Nc4ccc5c(c4)OCO5)C3)[nH]c(=O)c12 [Example 1, N-(Benzo[d][1,3]dioxol-5-yl)-3-(1-tert-butyl-3-methyl-4-oxo-4,5-dihydro-1H-pyrazolo[3,4-d]pyrimidin-6-yl)azetidine-1-carboxamide]",1 to 100
2,"CC(C)N1CCN(c2ccc(NC(=O)N3CC(c4nc5c(cnn5C5CCCCC5)c(=O)[nH]4)C3)cc2)CC1 [Example 2, 3-(1-Cyclohexyl-4-oxo-4,5-dihydro-1H-pyrazolo[3,4-d]pyrimidin-6-yl)-N-(4-(4-isopropylpiperazin-1-yl)phenyl)azetidine-1-carboxamide]",1 to 100
3,"CN1CCN(c2ccc(NC(=O)N3CC(c4nc5c(cnn5C5CCCCC5)c(=O)[nH]4)C3)cc2)CC1 [Example 3, 3-(1-cyclohexyl-4-oxo-4,5-dihydro-1H-pyrazolo[3,4-d]pyrimidin-6-yl)-N-(4-(4-methylpiperazin-1-yl)phenyl)azetidine-1-carboxamide]",1 to 100
4,"Cc1ccc(NC(=O)N2CC(c3nc4c(cnn4C4CCCCC4)c(=O)[nH]3)C2)cc1C [Example 4, 3-(1-cyclohexyl-4-oxo-4,5-dihydro-1H-pyrazolo[3,4-d]pyrimidin-6-yl)-N-(3,4-dimethylphenyl)azetidine-1-carboxamide]",1 to 100
5,"O=C(NCC1CCCCC1)N1CC(c2nc3c(cnn3C3CCCCC3)c(=O)[nH]2)C1 [Example 5, 3-(1-cyclohexyl-4-oxo-4,5-dihydro-1H-pyrazolo[3,4-d]pyrimidin-6-yl)-N-(cyclohexylmethyl)azetidine-1-carboxamide]",1 to 100
6,"Cc1nn(C(C)(C)C)c2nc(C3CN(C(=O)Nc4ccccc4)C3)[nH]c(=O)c12 [Example 6, 3-(1-tert-butyl-3-methyl-4-oxo-4,5-dihydro-1H-pyrazolo[3,4-d]pyrimidin-6-yl)-N-phenylazetidine-1-carboxamide]",1 to 100
7,"CN(C)c1cccc(NC(=O)N2CC(c3nc4c(cnn4C4CCCCC4)c(=O)[nH]3)C2)c1 [Example 7, 3-(1-cyclohexyl-4-oxo-4,5-dihydro-1H-pyrazolo[3,4-d]pyrimidin-6-yl)-N-(3-(dimethylamino)phenyl)azetidine-1-carboxamide]",1 to 100
8,"O=C(Nc1cccc(Cl)c1)N1CC(c2nc3c(cnn3C3CCCCC3)c(=O)[nH]2)C1 [Example 8, N-(3-chlorophenyl)-3-(1-cyclohexyl-4-oxo-4,5-dihydro-1H-pyrazolo[3,4-d]pyrimidin-6-yl)azetidine-1-carboxamide]",1 to 100
9,"CN(C)c1ccc(NC(=O)N2CC(c3nc4c(cnn4C4CCCCC4)c(=O)[nH]3)C2)cc1 [Example 9, 3-(1-cyclohexyl-4-oxo-4,5-dihydro-1H-pyrazolo[3,4-d]pyrimidin-6-yl)-N-(4-(dimethylamino)phenyl)azetidine-1-carboxamide]",1 to 100
10,"O=C(Nc1ccc(N2CCOCC2)cc1)N1CC(c2nc3c(cnn3C3CCCCC3)c(=O)[nH]2)C1 [Example 10, 3-(1-cyclohexyl-4-oxo-4,5-dihydro-1H-pyrazolo[3,4-d]pyrimidin-6-yl)-N-(4-morpholinophenyl)azetidine-1-carboxamide]",1 to 100
11,"O=C(Nc1ccccc1)N1CC(c2nc3c(cnn3C3CCCCC3)c(=O)[nH]2)C1 [Example 11, 3-(1-cyclohexyl-4-oxo-4,5-dihydro-1H-pyrazolo[3,4-d]pyrimidin-6-yl)-N-phenylazetidine-1-carboxamide]",1 to 100
12,"Cc1nn(C(C)(C)C)c2nc(C3CN(C(=O)Nc4ccc(F)cc4)C3)[nH]c(=O)c12 [Example 12, 3-(1-tert-butyl-3-methyl-4-oxo-4,5-dihydro-1H-pyrazolo[3,4-d]pyrimidin-6-yl)-N-(4-fluorophenyl)azetidine-1-carboxamide]",1 to 100
13,"COc1ccc(NC(=O)N2CC(c3nc4c(cnn4C4CCCCC4)c(=O)[nH]3)C2)cc1 [Example 13, 3-(1-cyclohexyl-4-oxo-4,5-dihydro-1H-pyrazolo[3,4-d]pyrimidin-6-yl)-N-(4-methoxyphenyl)azetidine-1-carboxamide]",1 to 100
14,"Cc1nn(C2CCCCC2)c2nc(C3CN(C(=O)Nc4ccccc4)C3)[nH]c(=O)c12 [Example 14, 3-(1-cyclohexyl-3-methyl-4-oxo-4,5-dihydro-1H-pyrazolo[3,4-d]pyrimidin-6-yl)-N-phenylazetidine-1-carboxamide]",1 to 100
15,"Cc1nn(C(C)(C)C)c2nc(C3CN(C(=O)NC4CCCCC4)C3)[nH]c(=O)c12 [Example 15, 3-(1-tert-butyl-3-methyl-4-oxo-4,5-dihydro-1H-pyrazolo[3,4-d]pyrimidin-6-yl)-N-cyclohexylazetidine-1-carboxamide]",1 to 100
16,"CC(C)(C)n1ncc2c(=O)[nH]c(C3CN(C(=O)Nc4ccc(F)cc4)C3)nc21 [Example 16, 3-(1-tert-butyl-4-oxo-4,5-dihydro-1H-pyrazolo[3,4-d]pyrimidin-6-yl)-N-(4-fluorophenyl)azetidine-1-carboxamide]",1 to 100
17,"Cc1nn(C(C)(C)C)c2nc(C3CN(C(=O)NCc4ccc(F)cc4)C3)[nH]c(=O)c12 [Example 17, 3-(1-tert-butyl-3-methyl-4-oxo-4,5-dihydro-1H-pyrazolo[3,4-d]pyrimidin-6-yl)-N-(4-fluorobenzyl)azetidine-1-carboxamide]",1 to 100
18,"CC(C)c1ccc(NC(=O)N2CC(c3nc4c(cnn4C4CCCCC4)c(=O)[nH]3)C2)cc1 [Example 18, 3-(1-cyclohexyl-4-oxo-4,5-dihydro-1H-pyrazolo[3,4-d]pyrimidin-6-yl)-N-(4-isopropylphenyl)azetidine-1-carboxamide]",1 to 100
19,"O=C(Nc1ccc(F)cc1)N1CC(c2nc3c(cnn3C3CCCCC3)c(=O)[nH]2)C1 [Example 19, 3-(1-cyclohexyl-4-oxo-4,5-dihydro-1H-pyrazolo[3,4-d]pyrimidin-6-yl)-N-(4-fluorophenyl)azetidine-1-carboxamide]",1 to 100
20,"O=C(Nc1ccc(F)c(F)c1)N1CC(c2nc3c(cnn3C3CCCCC3)c(=O)[nH]2)C1 [Example 20, 3-(1-cyclohexyl-4-oxo-4,5-dihydro-1H-pyrazolo[3,4-d]pyrimidin-6-yl)-N-(3,4-difluorophenyl)azetidine-1-carboxamide]",1 to 100
21,"Cc1nn(C2CCCCC2)c2nc(C3CN(C(=O)Nc4ccc(F)cc4)C3)[nH]c(=O)c12 [Example 21, 3-(1-cyclohexyl-3-methyl-4-oxo-4,5-dihydro-1H-pyrazolo[3,4-d]pyrimidin-6-yl)-N-(4-fluorophenyl)azetidine-1-carboxamide]",1 to 100
22,"Cc1nn(C(C)(C)C)c2nc(C3CN(C(=O)NCc4ccccc4)C3)[nH]c(=O)c12 [Example 22, N-benzyl-3-(1-tert-butyl-3-methyl-4-oxo-4,5-dihydro-1H-pyrazolo[3,4-d]pyrimidin-6-yl)azetidine-1-carboxamide]",1 to 100
23,"O=C(NC1CCCCC1)N1CC(c2nc3c(cnn3C3CCCCC3)c(=O)[nH]2)C1 [Example 23, N-cyclohexyl-3-(1-cyclohexyl-4-oxo-4,5-dihydro-1H-pyrazolo[3,4-d]pyrimidin-6-yl)azetidine-1-carboxamide]",1 to 100
24,"Cc1nn(C2CCCCC2)c2nc(C3CN(C(=O)NCc4ccccc4)C3)[nH]c(=O)c12 [Example 24, N-benzyl-3-(1-cyclohexyl-3-methyl-4-oxo-4,5-dihydro-1H-pyrazolo[3,4-d]pyrimidin-6-yl)azetidine-1-carboxamide]",1 to 100
25,"O=C(Nc1ccc(OC(F)(F)F)cc1)N1CC(c2nc3c(cnn3C3CCCCC3)c(=O)[nH]2)C1 [Example 25, 3-(1-cyclohexyl-4-oxo-4,5-dihydro-1H-pyrazolo[3,4-d]pyrimidin-6-yl)-N-(4-(trifluoromethoxy)phenyl)azetidine-1-carboxamide]",1 to 100
26,"CC(C)(C)OC(=O)N1CCCC(NC(=O)N2CC(c3nc4c(cnn4C4CCCCC4)c(=O)[nH]3)C2)C1 (centres unmarked) [Example 26, tert-butyl 3-(3-(1-cyclohexyl-4-oxo-4,5-dihydro-1H-pyrazolo[3,4-d]pyrimidin-6-yl)azetidine-1-carboxamido)piperidine-1-carboxylate]",1 to 100
27,"Cc1nn(C2CCCCC2)c2nc(C3CN(C(=O)NCc4ccc(F)cc4)C3)[nH]c(=O)c12 [Example 27, 3-(1-cyclohexyl-3-methyl-4-oxo-4,5-dihydro-1H-pyrazolo[3,4-d]pyrimidin-6-yl)-N-(4-fluorobenzyl)azetidine-1-carboxamide]",1 to 100
28,"COc1ccc(CNC(=O)N2CC(c3nc4c(c(C)nn4C4CCCCC4)c(=O)[nH]3)C2)cc1 [Example 28, 3-(1-cyclohexyl-3-methyl-4-oxo-4,5-dihydro-1H-pyrazolo[3,4-d]pyrimidin-6-yl)-N-(4-methoxybenzyl)azetidine-1-carboxamide]",1 to 100
29,"Cc1nn(-c2ccc(F)cc2)c2nc(C3CN(C(=O)Nc4ccccc4OC(F)F)C3)[nH]c(=O)c12 [Example 29, N-(2-(difluoromethoxy)phenyl)-3-(1-(4-fluorophenyl)-3-methyl-4-oxo-4,5-dihydro-1H-pyrazolo[3,4-d]pyrimidin-6-yl)azetidine-1-carboxamide]",1 to 100
